In the supplement of paper PMC10307832:

Tests used:
Experiment in all cases: relative viability (nuclei count vs DMSO), 5 days (fraction); higher = more cells survive
Sulindac + OSI-027 = compound: CC1=C(CC(=O)O)c2cc(F)ccc2/C1=C\c1ccc([S+](C)[O-])cc1 [Sulindac] + COc1cccc2cc(-c3nc([C@H]4CC[C@H](C(=O)O)CC4)n4ncnc(N)c34)[nH]c12 [OSI-027] (partner 0.5 µM)
Method in brief: (§1)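 Values are medians from duplicate plates. Each reflects relative viability, defined as the nuclei count of treated wells over that of vehicle wells. Lung cancer cell lines in 1536-well plates were pin-tool dosed one day after seeding with one drug alone or with a fixed anchor-drug dose plus five library-drug doses (not always all listed) in √10 steps, then fixed, stained and imaged at 4× after 5 days.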

Sulindac + Dasatinib = compound: CC1=C(CC(=O)O)c2cc(F)ccc2/C1=C\c1ccc([S+](C)[O-])cc1 [Sulindac] + Cc1nc(Nc2ncc(C(=O)Nc3c(C)cccc3Cl)s2)cc(N2CCN(CCO)CC2)n1 [Dasatinib] (partner 0.075 µM)
Method in brief: as §1

[1] = compound: CN[C@@H]1C[C@H]2O[C@@](C)([C@@H]1OC)n1c3ccccc3c3c4c(c5c6ccccc6n2c5c31)C(=O)NC4 [Staurosporine] + CC(=O)Nc1cccc(-n2c(=O)n(C3CC3)c(=O)c3c(Nc4ccc(I)cc4F)n(C)c(=O)c(C)c32)c1 [Trametinib] (partner 0.02 µM)
Method in brief: as §1

[2] = compound: CN[C@@H]1C[C@H]2O[C@@](C)([C@@H]1OC)n1c3ccccc3c3c4c(c5c6ccccc6n2c5c31)C(=O)NC4 [Staurosporine] + N=C(N)NC(=N)NCCc1ccccc1 [Phenformin] (partner 250 µM)
Method in brief: as §1

Cell Line	relative viability (Sulindac + OSI-027; first compound 0.08 µM)	relative viability (Sulindac + OSI-027; first compound 0.253 µM)	relative viability (Sulindac + OSI-027; first compound 0.8 µM)	relative viability (Sulindac + OSI-027; first compound 2.53 µM)	relative viability (Sulindac + OSI-027; first compound 8 µM)	relative viability (Sulindac + Dasatinib; first compound 0.08 µM)	relative viability (Sulindac + Dasatinib; first compound 0.253 µM)	relative viability (Sulindac + Dasatinib; first compound 0.8 µM)	relative viability (Sulindac + Dasatinib; first compound 2.53 µM)	relative viability (Sulindac + Dasatinib; first compound 8 µM)	relative viability ([1]; first compound 0.005 µM)	relative viability ([1]; first compound 0.01581 µM)	relative viability ([1]; first compound 0.05 µM)	relative viability ([1]; first compound 0.1581 µM)	relative viability ([1]; first compound 0.5 µM)	relative viability ([2]; first compound 0.005 µM)	relative viability ([2]; first compound 0.01581 µM)	relative viability ([2]; first compound 0.05 µM)	relative viability ([2]; first compound 0.1581 µM)	relative viability ([2]; first compound 0.5 µM)
NCI-H838	0.382	0.424	0.367	0.358	0.388	0.275	0.334	0.311	0.281	0.34	0.174	0.145	0.208	0.0937	0.0589	0.208	0.139	0.136	0.125	0.0931
NCI-H2023	0.501	0.509	0.399	0.387	0.389	0.91	0.726	0.424	0.567	0.617	0.257	0.17	0.145	0.0801	0.0607	0.214	0.16	0.128	0.0907	0.0615
NCI-H2342	0.591	0.578	0.546	0.618	0.694	0.276	0.339	0.287	0.303	0.319	0.948	0.675	0.499	0.417	0.363	0.686		0.427	0.301	0.281
ChaGo-K-1	0.68	0.644	0.398	0.57	0.61	0.597	0.618	0.64	0.587	0.651	0.911		0.796	0.579	0.455	0.461	0.233	0.351	0.158	0.123
COR-L23	1.09	0.777	0.609	0.743	0.94	0.478	0.419	0.438	0.489	0.744	0.325	0.148	0.0689	0.0665	0.0391	0.243	0.18	0.14	0.0737	0.0585
EMC-BAC-2	0.375	0.407	0.311	0.371	0.473	0.269	0.323	0.378	0.314	0.367	0.42	0.225	0.219	0.253		0.252	0.179	0.17	0.189	0.164
LCLC-103H	0.558	0.499	0.388	0.496	0.555	0.5	0.477	0.376	0.458	0.508	0.685	0.472	0.445	0.331	0.332	0.296	0.211	0.16	0.108	0.105
LK-2	0.186	0.209	0.201	0.17	0.21	0.325	0.215			0.313	0.906	0.781	0.701	0.669	0.333	0.676			0.127	0.126
NCI-H460	1.5	0.811	0.566	0.688	0.77	0.616	0.461	0.482	0.489	0.658	0.0592	0.0305	0.0206	0.0114	0.0063	0.301	0.0818	0.071	0.0104	0.0069
NCI-H3122	1.07	1.02	0.864	0.937	1.13	0.79	0.825	0.74	0.705	0.894	0.368		0.648		0.221	0.283		0.335	0.12	0.0915
NCI-H2126	0.578	0.698	0.674	0.741	0.771	0.558	0.585	0.597	0.57	0.671	0.592	0.373	0.375	0.339	0.345	0.483	0.245	0.336	0.237	0.245
NCI-H596	0.798	0.761	0.76	0.77	0.772	0.563	0.56	0.6	0.666	0.641	0.753	0.494	0.275	0.184	0.173	0.797	0.323	0.383	0.249	0.194
LOU-NH91	0.681	0.714	0.808	0.705	0.73	0.65	0.53	0.481	0.54	0.573	0.673	0.493	0.511	0.341	0.303	0.467	0.302	0.334	0.228	0.168
NCI-H1651	0.783	0.698		0.801	0.85	0.475	0.539		0.419	0.777	0.871	0.785	0.569	0.509	0.346	0.293	0.155	0.16	0.0842	0.0807
NCI-H520	0.266	0.266		0.232	0.307	0.241	0.201		0.204	0.226	0.708	0.536	0.303	0.16	0.112	0.758	0.233	0.394	0.25	0.166
